Reference: publication PMC314469, “Protein Interaction Networks by Proteome Peptide Scanning” (PLoS Biology, 2004)

System: Myo5 SH3 domain
Experiment: SPOT analysis of cellulose-bound peptides (WISE), Myo5 SH3 domain (Dataset S4)
Format: binding, Saccharomyces cerevisiae
Details: for The normalized value in BLU units: Myo5 SH3 domain
[1] = SPOT analysis of membrane-bound peptides, normalized value (see methods)
[2] = SPOT analysis of cellulose-bound 14-mer yeast proteome peptides, normalized value, mean where the peptide was synthesized more than once
[3] = SPOT analysis of membrane-synthesized peptides probed with Myo5 SH3 domain, normalized value
[4] = SPOT analysis of cellulose-bound peptides probed with Myo5 SH3 domain, normalized value

Sequence: KRNSKHAPFIPVKP
- The normalized value in BLU units [1]: 381.6 BLU

Sequence: KRRSKSLPITPKSI
- The normalized value in BLU units [1]: 920.9 BLU

Sequence: KRRSKSLPTTPGIR
- The normalized value in BLU units [1]: 592.0 BLU

Sequence: KSIPRTKPNVPPLQ
- The normalized value in BLU units [1]: 343.4 BLU

Sequence: KSLQKFEPRYPKTA
- The normalized value in BLU units [1]: 244.9 BLU

Sequence: KSYRKADPTNPQGW
- The normalized value in BLU units [2]: 103.0 BLU

Sequence: KTGRKTFPFLPYQI
- The normalized value in BLU units [1]: 466.0 BLU

Sequence: KTKKKTVPVKPLQL
- The normalized value in BLU units [2]: 358.9 BLU

Sequence: KTRNKPKPLWPQVK
- The normalized value in BLU units (SPOT analysis, Myo5 SH3) [3]: 261.8 BLU

Sequence: KTSTKAQPAEPQAE
- The normalized value in BLU units [1]: 166.8 BLU

Sequence: KTVDKGLPMIPTYV
- The normalized value in BLU units [2]: 76.8 BLU

Sequence: KVIRKGSPKSPAMV
- The normalized value in BLU units [1]: 495.7 BLU

Sequence: KVLIKTLPVLPEAR
- The normalized value in BLU units (SPOT analysis, Myo5 SH3) [3]: 236.7 BLU

Sequence: KVNFRRIPTGPDSP
- The normalized value in BLU units [1]: 502.6 BLU

Sequence: KVQIKKVPTDPSSS
- The normalized value in BLU units [1]: 191.2 BLU

Sequence: KVSSKYDPDNPNKD
- The normalized value in BLU units [1]: 434.5 BLU

Sequence: KWKSLFPPFFPCDI
- The normalized value in BLU units (SPOT analysis, Myo5 SH3) [4]: 241.7 BLU

Sequence: KWTIMPHPNRPNAA
- The normalized value in BLU units [2]: 428.7 BLU

Sequence: KYCFKLVPPQPGSK
- The normalized value in BLU units [1]: 218.8 BLU

Sequence: KYIIKTEPESPEED
- The normalized value in BLU units [2]: 245.5 BLU

Sequence: LAAHKTKPSIPPKK
- The normalized value in BLU units [1]: 248.8 BLU

Sequence: LAGIRLVPVLPILL
- The normalized value in BLU units (SPOT analysis, Myo5 SH3) [3]: 152.2 BLU

Sequence: LAIRLCWPPAPVTL
- The normalized value in BLU units [2]: 154.7 BLU

Sequence: LAKDLIVPRRPEWN
- The normalized value in BLU units (SPOT analysis, Myo5 SH3) [4]: 117125.4 BLU

Sequence: LALLMTDPDAPSRT
- The normalized value in BLU units [2]: 177.5 BLU

Sequence: LAPKREAPKPPANT
- The normalized value in BLU units [1]: 116079.9 BLU

Sequence: LASDKGLPMIPAFV
- The normalized value in BLU units (SPOT analysis, Myo5 SH3) [3]: 79.9 BLU

Sequence: LASPFHDPILPRRT
- The normalized value in BLU units [2]: 288.3 BLU

Sequence: LAYERPLPDLPSTI
- The normalized value in BLU units (SPOT analysis, Myo5 SH3) [3]: 131.9 BLU

Sequence: LDKGKHVPSKPVSN
- The normalized value in BLU units [1]: 200.9 BLU

Sequence: LDLSKYGPLPPSRA
- The normalized value in BLU units (SPOT analysis, Myo5 SH3) [3]: 154.0 BLU

Sequence: LDPGKNTPGLPEET
- The normalized value in BLU units (SPOT analysis, Myo5 SH3) [3]: 155.6 BLU

Sequence: LDSMKNLPLNPSKK
- The normalized value in BLU units [2]: 268.3 BLU

Sequence: LDTHKESPLRPKVR
- The normalized value in BLU units [1]: 199.3 BLU

Sequence: LDVRRIYPKGPLLV
- The normalized value in BLU units (SPOT analysis, Myo5 SH3) [3]: 231.6 BLU

Sequence: LEDALHVPTNPEIL
- The normalized value in BLU units (SPOT analysis, Myo5 SH3) [4]: 191.1 BLU

Sequence: LEFPKDYPLSPPKL
- The normalized value in BLU units [1]: 134.8 BLU

Sequence: LEFSHYAPTAPHVQ
- The normalized value in BLU units (SPOT analysis, Myo5 SH3) [4]: 103.0 BLU

Sequence: LELLLSLPTGPESK
- The normalized value in BLU units (SPOT analysis, Myo5 SH3) [4]: 142.9 BLU

Sequence: LFDEKVKPQIPQLR
- The normalized value in BLU units (SPOT analysis, Myo5 SH3) [3]: 89.2 BLU

Sequence: LFGIRNNPFIPITG
- The normalized value in BLU units [1]: 169.8 BLU

Sequence: LFKRLPVPAPPMDS
- The normalized value in BLU units (SPOT analysis, Myo5 SH3) [4]: 145.1 BLU

Sequence: LGLHKWLPDIPLFE
- The normalized value in BLU units [1]: 167.8 BLU

Sequence: LGPLKYAPHLPFSK
- The normalized value in BLU units [1]: 427.6 BLU

Sequence: LGSEKSCPLAPAVA
- The normalized value in BLU units (SPOT analysis, Myo5 SH3) [3]: 121.9 BLU

Sequence: LIDFKDYPDVPKVP
- The normalized value in BLU units (SPOT analysis, Myo5 SH3) [3]: 153.6 BLU

Sequence: LITDKEYPVRPAYT
- The normalized value in BLU units (SPOT analysis, Myo5 SH3) [3]: 136.3 BLU

Sequence: LIWHKNKPTEPDNK
- The normalized value in BLU units (SPOT analysis, Myo5 SH3) [3]: 155.4 BLU

Sequence: LIWHKNKPTKPDNK
- The normalized value in BLU units [2]: 300.3 BLU

Sequence: LIWHKSKPVKPTNK
- The normalized value in BLU units [1]: 353.6 BLU

Sequence: LKDNRLLPSWPKRG
- The normalized value in BLU units (SPOT analysis, Myo5 SH3) [3]: 518.0 BLU

Sequence: LKDPKSFPPPPLKP
- The normalized value in BLU units [1]: 252.9 BLU

Sequence: LKHTKNKPKNPDTA
- The normalized value in BLU units (SPOT analysis, Myo5 SH3) [3]: 406.0 BLU

Sequence: LKKQKAIPSSPCGM
- The normalized value in BLU units [1]: 306.9 BLU

Sequence: LLAEHNGPKLPHIP
- The normalized value in BLU units [2]: 198.5 BLU

Sequence: LLAKLPLPRDPRVA
- The normalized value in BLU units [2]: 343.8 BLU

Sequence: LLEERNNPDIPVDK
- The normalized value in BLU units (SPOT analysis, Myo5 SH3) [3]: 311.9 BLU

Sequence: LLISHLFPTNPEFS
- The normalized value in BLU units (SPOT analysis, Myo5 SH3) [4]: 413.9 BLU

Sequence: LLKGYIPPYKPIVK
- The normalized value in BLU units (SPOT analysis, Myo5 SH3) [4]: 168.7 BLU

Sequence: LLLPLLLPPLPSVK
- The normalized value in BLU units (SPOT analysis, Myo5 SH3) [4]: 6465.7 BLU

Sequence: LLPTKLIPSIPGGK
- The normalized value in BLU units (SPOT analysis, Myo5 SH3) [3]: 172.0 BLU

Sequence: LLQSLRLPTTPTER
- The normalized value in BLU units [2]: 124.6 BLU

Sequence: LLVTKERPRFPEDD
- The normalized value in BLU units [1]: 33.7 BLU

Sequence: LLYLMTYPQQPMVK
- The normalized value in BLU units [2]: 161.7 BLU

Sequence: LMSLKRFPQLPSNT
- The normalized value in BLU units (SPOT analysis, Myo5 SH3) [3]: 347.7 BLU

Sequence: LNATKISPSAPSKD
- The normalized value in BLU units [1]: 114.4 BLU

Sequence: LNFKRLLPRDPSEK
- The normalized value in BLU units (SPOT analysis, Myo5 SH3) [3]: 553.7 BLU

Sequence: LNFPKNIPTIPFYV
- The normalized value in BLU units (SPOT analysis, Myo5 SH3) [3]: 255.7 BLU

Sequence: LNGLKSSPADPHLS
- The normalized value in BLU units [1]: 152.9 BLU

Sequence: LNKTKLLPQSPILN
- The normalized value in BLU units [1]: 117.8 BLU

Sequence: LNLSKDAPVPPAPE
- The normalized value in BLU units [1]: 161.0 BLU

Sequence: LNPNRRAPRRPLST
- The normalized value in BLU units (SPOT analysis, Myo5 SH3) [3]: 8004.0 BLU
